We go through 16 compounds from patent US20230192700A1, “PYRAZOLOPYRAZINES ACTING ON CANCERS VIA INHIBITION OF CDK12” (Bayer Aktiengesellschaft, priority 2020, published 2023).

Test [1] addresses T1, CDK2/CyclinE (Homo sapiens, UniProt P24941).
T1 construct: GST; purchased ProQinase GmbH (Freiburg, Germany); host or cells: insect cells (Sf9)
As to the kind of experiment: CDK2/CycE kinase assay (TR-FRET). In kind it is biochemical. The following applies: 2 mM ATP (high ATP); median; read-out: CDK2/CyclinE, 2 mM ATP (high ATP) IC50 - [mol/l] (median). From the text: 2.4 CDK2/CycE Kinase Assay
CDK2/CycE-inhibitory activity of compounds of the present invention was quantified employing the CDK2/CycE TR-FRET assay as described in the following paragraphs.
Recombinant fusion proteins of GST and human CDK2 and of GST and human CycE, expressed in insect cells (Sf9) and purified by Glutathion-Sepharose affinity chromatography, were purchased from ProQinase GmbH (Freiburg, Germany). As substrate for the kinase reaction biotinylated peptide biotin-Ttds-YISPLKSPYKISEG (C-terminus in amid form) was used which can be purchased e.g. form the company JERINI peptide technologies (Berlin, Germany).
For the assay 50 nanoL of a 100 fold concentrated solution of the test compound in DMSO was pipetted into a black low volume 384 well microtiter plate or a black 1536 well microtiter plate (both Greiner Bio-One, Frickenhausen, Germany), 2 microL of a solution of CDK2/CycE in aqueous assay buffer [50 millimol/L Tris/HCl pH 8.0, 10 millimol/L MgCl2, 1.0 millimol/L dithiothreitol, 0.1 millimol/L sodium ortho-vanadate, 0.01% (v/v) Nonidet-P40 (Sigma)] were added and the mixture was incubated for 15 min at 22° C. to allow pre-binding of the test compounds to the enzyme before the start of the kinase reaction. Then the kinase reaction was started by the addition of 3 microL of a solution of adenosine-tri-phosphate (ATP, 3.33 millimol/L=>final conc. in the 5 microL assay volume is 2 millimol/L) and substrate (1.25 micromol/L=>final conc. in the 5 microL assay volume is 0.75 micromol/L) in assay buffer and the resulting mixture was incubated for a reaction time of 25 min at 22° C. The concentration of CDK2/CycE was adjusted depending of the activity of the enzyme lot and was chosen appropriate to have the assay in the linear range, typical concentrations were in the range of 10 ng/mL. The reaction was stopped by the addition of 3 microL of a solution of TR-FRET detection reagents (0.333 micromol/L streptavidine-XL665 [Cisbio Bioassays, Codolet, France] and 1.67 nanomol/L anti-RB(pSer807/pSer811)-antibody from BD Pharmingen [#558389] and 2 nanomol/L LANCE EU-W1024 labeled anti-mouse IgG antibody [Perkin-Elmer, product no. AD0077, as an alternative a Terbium-cryptate-labeled anti-mouse IgG antibody from Cisbio Bioassays can be used]) in an aqueous EDTA-solution (167 millimol/L EDTA, 0.2% (w/v) bovine serum albumin in 100 millimol/L HEPES pH 7.5).
The resulting mixture was incubated 1 h at 22° C. to allow the formation of complex between the phosphorylated biotinylated peptide and the detection reagents. Subsequently the amount of phosphorylated substrate was evaluated by measurement of the resonance energy transfer from the Eu-chelate to the streptavidine-XL. Therefore, the fluorescence emissions at 620 nm and 665 nm after excitation at 350 nm was measured in a TR-FRET reader, e.g. a Pherastar (BMG Labtechnologies, Offenburg, Germany) or a Viewlux (Perkin-Elmer). The ratio of the emissions at 665 nm and at […] was taken as the measure for the amount of phosphorylated substrate. The data were normalised (enzyme reaction without inhibitor=0% inhibition, all other assay components but no enzyme=100% inhibition).

Test [2] has as its target T2, CDK12 (Homo sapiens, UniProt Q9NYV4).
T2 construct: endogenous in cells; host or cells: CAL-120 human breast cancer cells (DSMZ ACC 459)
As to the kind of experiment: CDK12 nuclear protein level: immunofluorescence/high content analysis in CAL-120 cells. In kind it is cell-based. The following applies: for DC50: CAL-120 cells, 24 h, nuclear CDK12 staining intensity, median, read-out: CDK12 degradation IF DC50 - [mol/l] (median); for (IC50 CDK12 high ATP) to (Degradation DC50 CDK12) ratio: ratio of IC50 CDK12 hATP (2 mM ATP) to DC50 CDK12 (IF, CAL-120). On the procedure:
6. CDK12 Nuclear Protein Level: Immunofluorescence/High Content Analysis
In the context of the present invention, the term “DC50 CDK12” refers to the DC50 values obtained according to the assay described in this section (6) herein below, i.e. the DC50 values for the degradation of CDK12.:
CAL-120 human breast cancer cells (DSMZ ACC 459) are seeded in 1536-well microtiter plates (800 cells per well) containing 50 nanoL of compounds in Dose-Response. Control wells received DMSO or Reference Example 1. Plates are then incubated for 24 h at 37° C. in an humidified incubator and fixed with 4% PFA for 10 min. Then immunofluorescence (IF) against CDK12 (CellSignalling CDK12 Antibody #11973, rabbit, 1:100 dilution) is performed using standard IF protocols. Cells are then stained with Hoechst 33342 (Life Technologies, H-1399, 0.1 microg/mL) and imaged on an automated confocal microscopy system (e.g. Perkin Elmer Opera Phenix). Nuclear and cytoplasmic intensity as well as the nuclear/cytoplasmic intensity ratio is determined by automated image analysis using custom generated scripts (MetaXpress). Data is then transferred to Genedata Screener software, normalized to DMSO and control and DC50 values (degrading concentration to achieve 50% reduction of nuclear CDK12 staining intensity relative to controls) are reported.

T2 sequence (Q9NYV4 whole entry): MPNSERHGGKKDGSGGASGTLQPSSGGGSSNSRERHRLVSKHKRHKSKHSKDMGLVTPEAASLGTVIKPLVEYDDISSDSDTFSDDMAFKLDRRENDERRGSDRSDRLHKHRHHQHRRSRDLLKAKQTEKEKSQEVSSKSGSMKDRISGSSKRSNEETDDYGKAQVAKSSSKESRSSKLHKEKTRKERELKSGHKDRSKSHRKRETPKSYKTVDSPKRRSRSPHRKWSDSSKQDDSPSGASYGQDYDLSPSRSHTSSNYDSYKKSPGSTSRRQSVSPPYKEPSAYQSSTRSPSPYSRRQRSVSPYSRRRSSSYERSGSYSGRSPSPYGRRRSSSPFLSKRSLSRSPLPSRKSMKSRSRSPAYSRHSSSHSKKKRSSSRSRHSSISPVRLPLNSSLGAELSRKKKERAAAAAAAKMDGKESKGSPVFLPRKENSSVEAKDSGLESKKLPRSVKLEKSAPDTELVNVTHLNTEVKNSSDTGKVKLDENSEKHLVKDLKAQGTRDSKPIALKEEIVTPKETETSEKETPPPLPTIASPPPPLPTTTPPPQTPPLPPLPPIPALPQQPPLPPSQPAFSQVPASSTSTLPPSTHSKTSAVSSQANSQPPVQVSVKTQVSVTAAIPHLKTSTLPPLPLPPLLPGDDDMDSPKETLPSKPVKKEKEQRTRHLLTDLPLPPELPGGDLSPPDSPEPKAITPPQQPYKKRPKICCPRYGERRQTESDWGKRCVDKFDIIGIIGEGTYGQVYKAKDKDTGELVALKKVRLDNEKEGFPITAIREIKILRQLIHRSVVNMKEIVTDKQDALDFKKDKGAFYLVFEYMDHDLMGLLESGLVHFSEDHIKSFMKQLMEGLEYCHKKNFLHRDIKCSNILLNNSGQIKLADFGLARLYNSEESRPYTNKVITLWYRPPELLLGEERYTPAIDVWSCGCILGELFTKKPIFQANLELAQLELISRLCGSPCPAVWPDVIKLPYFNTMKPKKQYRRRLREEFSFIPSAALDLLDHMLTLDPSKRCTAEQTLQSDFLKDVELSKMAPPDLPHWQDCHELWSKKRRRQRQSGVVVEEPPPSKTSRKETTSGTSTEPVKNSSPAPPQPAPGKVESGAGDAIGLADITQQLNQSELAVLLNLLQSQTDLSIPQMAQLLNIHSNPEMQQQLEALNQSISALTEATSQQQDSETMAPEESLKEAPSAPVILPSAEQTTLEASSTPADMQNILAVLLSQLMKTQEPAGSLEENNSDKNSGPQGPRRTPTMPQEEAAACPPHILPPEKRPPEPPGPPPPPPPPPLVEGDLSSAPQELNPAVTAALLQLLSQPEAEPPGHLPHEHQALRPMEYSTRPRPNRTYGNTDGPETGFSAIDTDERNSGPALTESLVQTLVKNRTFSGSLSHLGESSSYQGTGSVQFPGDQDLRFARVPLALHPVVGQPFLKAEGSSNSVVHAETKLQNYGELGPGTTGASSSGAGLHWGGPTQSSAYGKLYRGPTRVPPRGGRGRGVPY
T2 sequence (O75909 whole entry partner): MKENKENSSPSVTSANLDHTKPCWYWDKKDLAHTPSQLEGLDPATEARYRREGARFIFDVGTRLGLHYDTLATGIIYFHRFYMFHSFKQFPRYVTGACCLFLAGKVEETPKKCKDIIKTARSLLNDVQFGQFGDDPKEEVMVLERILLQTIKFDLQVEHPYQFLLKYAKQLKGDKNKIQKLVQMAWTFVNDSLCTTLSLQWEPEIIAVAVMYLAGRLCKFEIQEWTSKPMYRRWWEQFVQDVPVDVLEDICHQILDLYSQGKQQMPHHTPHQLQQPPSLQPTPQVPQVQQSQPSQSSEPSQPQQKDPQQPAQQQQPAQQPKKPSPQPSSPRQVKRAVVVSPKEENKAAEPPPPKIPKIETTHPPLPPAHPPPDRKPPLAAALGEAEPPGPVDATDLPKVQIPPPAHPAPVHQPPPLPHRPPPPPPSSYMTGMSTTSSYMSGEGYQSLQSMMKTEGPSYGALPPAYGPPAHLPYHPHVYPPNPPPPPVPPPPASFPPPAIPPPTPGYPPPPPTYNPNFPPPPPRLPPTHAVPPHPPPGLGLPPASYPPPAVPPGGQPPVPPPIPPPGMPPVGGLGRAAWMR

As to `CN1CCC(n2nc(NCc3nc4ccccc4[nH]3)c3ncc(C4CC4)nc32)C1` (single isomer, unassigned) [Example 79, (−) or (+)-N-[(1H-benzimidazol-2-yl)methyl]-6-cyclopropyl-1-(1-methylpyrrolidin-3-yl)-1H-pyrazolo[3,4-b]pyrazin-3-amine], the IC50 in test [1] is over 20 µM. For the same compound, the DC50 in test [2] was determined as 41.2 nM.

`COCCC(C)n1nc(NCc2nc3ccccc3[nH]2)c2ncc(C3CC3)nc21` (single isomer, unassigned; (+)) [Example 59, (+)-N-[(1H-benzimidazol-2-yl)methyl]-6-cyclopropyl-1-[4-methoxybutan-2-yl]-1H-pyrazolo[3,4-b]pyrazin-3-amine]: the IC50 in test [1] is over 20 µM. In test [2], the DC50 is 32.4 nM and the “(IC50 CDK12 high ATP) to (Degradation DC50 CDK12) ratio” value was over 618.

As to `COCCC(C)n1nc(NCc2nc3ccccc3[nH]2)c2ncc(C3CC3)nc21` (single isomer, unassigned; (-)) [Example 58, (−)-N-[(1H-benzimidazol-2-yl)methyl]-6-cyclopropyl-1-[4-methoxybutan-2-yl]-1H-pyrazolo[3,4-b]pyrazin-3-amine], the IC50 in test [1] was over 20 µM. Also, in test [2], the DC50 turned out to be 27.2 nM and the “(IC50 CDK12 high ATP) to (Degradation DC50 CDK12) ratio” value was over 735.

In the case of `CN1CCC(n2nc(NCc3nc4ccccc4[nH]3)c3ncc(C4CC4)nc32)CC1` [Example 1, N-[(1H-benzimidazol-2-yl)methyl]-6-cyclopropyl-1-(1-methylpiperidin-4-yl)-1H-pyrazolo[3,4-b]pyrazin-3-amine], in test [1], the IC50 is over 20 µM. In test [2], the DC50 amounted to 4.2 nM and the “(IC50 CDK12 high ATP) to (Degradation DC50 CDK12) ratio” value is on record as over 2380.

In the case of `COc1cccc2[nH]c(CNc3nn(C4CCN(C)CC4)c4nc(C5CC5)cnc34)nc12` [Example 2, 6-cyclopropyl-N-[(4-methoxy-1H-benzimidazol-2-yl)methyl]-1-(1-methylpiperidin-4-yl)-1H-pyrazolo[3,4-b]pyrazin-3-amine], the IC50 in test [1] was over 20 µM. In addition, in test [2], the DC50 was determined as 6.09 nM and the “(IC50 CDK12 high ATP) to (Degradation DC50 CDK12) ratio” value is listed as over 3284.

Regarding `CN1CCC(n2nc(NCc3nc4c(F)cccc4[nH]3)c3ncc(C4CC4)nc32)CC1` [Example 3, 6-cyclopropyl-N-[(4-fluoro-1H-benzimidazol-2-yl)methyl]-1-(1-methylpiperidin-4-yl)-1H-pyrazolo[3,4-b]pyrazin-3-amine], the IC50 in test [1] is over 20 µM. Moreover, the DC50 in test [2] is 1.92 nM.

In the case of `CN1CCC(n2nc(NCc3nc4cc(F)ccc4[nH]3)c3ncc(C4CC4)nc32)CC1` [Example 4, 6-cyclopropyl-N-[(5-fluoro-1H-benzimidazol-2-yl)methyl]-1-(1-methylpiperidin-4-yl)-1H-pyrazolo[3,4-b]pyrazin-3-amine], the IC50 in test [1] is over 20 µM. Besides, in test [2], the DC50 came out at 4.3 nM.

Take `Cc1ccc2[nH]c(CNc3nn(C4CCN(C)CC4)c4nc(C5CC5)cnc34)nc2c1` [Example 6, 6-cyclopropyl-N-[(5-methyl-1H-benzimidazol-2-yl)methyl]-1-(1-methylpiperidin-4-yl)-1H-pyrazolo[3,4-b]pyrazin-3-amine]: in test [1], the IC50 is over 20 µM. In addition, in test [2], the DC50 was found to be 13.1 nM and the “(IC50 CDK12 high ATP) to (Degradation DC50 CDK12) ratio” value is over 1526.

Take `CN1CCC(n2nc(NCc3nc4c(C(F)(F)F)cccc4[nH]3)c3ncc(C4CC4)nc32)CC1` [Example 7, 6-cyclopropyl-1-(1-methylpiperidin-4-yl)-N-{[4-(trifluoromethyl)-1H-benzimidazol-2-yl]methyl}-1H-pyrazolo[3,4-b]pyrazin-3-amine]: the IC50 in test [1] is over 20 µM. Further, the DC50 in test [2] was 14.4 nM.

In the case of `Cc1cccc2[nH]c(CNc3nn(C4CCN(C)CC4)c4nc(C5CC5)cnc34)nc12` [Example 8, 6-cyclopropyl-N-[(4-methyl-1H-benzimidazol-2-yl)methyl]-1-(1-methylpiperidin-4-yl)-1H-pyrazolo[3,4-b]pyrazin-3-amine], in test [1], the IC50 was over 20 µM. In addition, in test [2], the DC50 came to 8.53 nM and the “(IC50 CDK12 high ATP) to (Degradation DC50 CDK12) ratio” value is over 2344.

As to `CN1CCC(n2nc(NCc3nc4c(F)c(F)ccc4[nH]3)c3ncc(C4CC4)nc32)CC1` [Example 9, 6-cyclopropyl-N-[(4,5-difluoro-1H-benzimidazol-2-yl)methyl]-1-(1-methylpiperidin-4-yl)-1H-pyrazolo[3,4-b]pyrazin-3-amine], in test [1], the IC50 is over 20 µM. For the same compound, in test [2], the DC50 was 8.07 nM and the “(IC50 CDK12 high ATP) to (Degradation DC50 CDK12) ratio” value was over 2478.

For the compound `CC(C)(C)OC(=O)N1CCC(n2nc(NCc3nc4ccccc4[nH]3)c3ncc(C4CC4)nc32)CC1` [Example 11, tert-butyl 4-(3-{[(1H-benzimidazol-2-yl)methyl]amino}-6-cyclopropyl-1H-pyrazolo[3,4-b]pyrazin-1-yl)piperidine-1-carboxylate], the IC50 in test [1] is over 20 µM. Further, in test [2], the DC50 came to 74.9 nM and the “(IC50 CDK12 high ATP) to (Degradation DC50 CDK12) ratio” value was over 267.

Consider `c1ccc2[nH]c(CNc3nn(C4CCNCC4)c4nc(C5CC5)cnc34)nc2c1` [Example 12, N-[(1H-benzimidazol-2-yl)methyl]-6-cyclopropyl-1-(piperidin-4-yl)-1H-pyrazolo[3,4-b]pyrazin-3-amine], for which the IC50 in test [1] is over 20 µM. In addition, in test [2], the DC50 came out at 8.53 nM and the “(IC50 CDK12 high ATP) to (Degradation DC50 CDK12) ratio” value is on record as over 2344.

Consider `O=CO.c1ccc(-n2nc(NCc3nc4ccccc4[nH]3)c3ncc(C4CC4)nc32)cc1` [Example 13, formic acid—N-[(1H-benzimidazol-2-yl)methyl]-6-cyclopropyl-1-phenyl-1H-pyrazolo[3,4-b]pyrazin-3-amine (1/1)], for which the IC50 in test [1] was over 20 µM. Further, in test [2], the DC50 was 43.9 nM and the “(IC50 CDK12 high ATP) to (Degradation DC50 CDK12) ratio” value is given as over 455.

On to `CC(C)n1nc(NCc2nc3ccccc3[nH]2)c2ncc(C3CC3)nc21` [Example 14, N-[(1H-benzimidazol-2-yl)methyl]-6-cyclopropyl-1-(propan-2-yl)-1H-pyrazolo[3,4-b]pyrazin-3-amine], for which the IC50 in test [1] is over 20 µM. Besides, in test [2], the DC50 turned out to be 49.6 nM and the “(IC50 CDK12 high ATP) to (Degradation DC50 CDK12) ratio” value was over 403.

In the case of `Cn1nc(NCc2nc3ccccc3[nH]2)c2ncc(C3CC3)nc21` [Example 15, N-[(1H-benzimidazol-2-yl)methyl]-6-cyclopropyl-1-methyl-1H-pyrazolo[3,4-b]pyrazin-3-amine], in test [1], the IC50 is over 20 µM. Further, in test [2], the DC50 was found to be 155 nM and the “(IC50 CDK12 high ATP) to (Degradation DC50 CDK12) ratio” value was over 129.
